Patent publication US6429326B1, “Benzylidenecamphor-substituted silanes/organosiloxanes for use in photostabilizing sunscreen compositions comprising dibenzoylmethane compounds” (Societe L'Oreal, priority 1998, dated 2002)

SMILES | melting point
COc1cc(/C=C2/C(=O)C3(C)CCC2C3(C)C)ccc1OCCC[Si](C)(C)C (stereo not drawn) | 79 to 80 °C
CC12CCC(/C(=C\c3ccc(OCCC[Si](C)(C)C)cc3)C1=O)C2(C)C (stereo not drawn) | 100 to 101 °C
CC12CCC(/C(=C\c3ccc(OCCC[Si](C)(O[Si](C)(C)C)O[Si](C)(C)C)cc3)C1=O)C2(C)C (stereo not drawn) | 47 to 48 °C
